Data on 3 compounds can be found in ChEMBL document CHEMBL4732023, “Using NMR to identify binding regions for N and C-terminal Hsp90 inhibitors using Hsp90 domains” (RSC Med Chem, 2021).

Data set [1] addresses T1, Heat shock protein HSP90 (Homo sapiens, UniProt P07900+P08238). Description: Binding affinity to recombinant His6-tagged HSP90 C-domain (unknown origin) (553 to 732 residues) expressed in Escherichia coli BL21 (DE3) (DNAY) cells assessed as chemical shift perturbation at protein to compound ratio of 1:1.6 by 15N-1H TROSY-HSQC NMR spectroscopy.
In data set [2] the target is T1, Heat shock protein HSP90. Put plainly: Binding affinity to HSP90 C-terminal domain (unknown origin) by biochemical assay. Type of data set: protein assay.
For data set [3], the target named is T1, Heat shock protein HSP90. Put plainly: Binding affinity to recombinant His6-tagged HSP90 C-domain (unknown origin) (553 to 732 residues) expressed in Escherichia coli BL21 (DE3) (DNAY) cells assessed as dissociation constant by 15N-1H TROSY-HSQC NMR spectroscopy.
Data set [4] is described as follows: Solubility of compound in water. As to conditions: buffer. In kind it is physicochemical.

In brackets after ≈: the same amount, converted by molar mass. Activity calls are given as the source filed them. No cut-off for these calls is given here. Where a SMILES comes first, the peptide text is derived from it. [ ]: non-standard residue; d: D form. dAla(4-thiazolyl) = N[C@H](Cc1cscn1)C(=O)O; dDip = N[C@@H](C(=O)O)C(c1ccccc1)c1ccccc1; NMeV = CN[C@H](C(=O)O)C(C)C

For the compound `NCCCC[C@@H]1NC(=O)[C@H](Cc2ccccc2)NC(=O)[C@H](Cc2ccc(O)cc2)NC(=O)[C@H](CO)NC(=O)[C@H](CC(N)=O)NC1=O` (cyclo(KNSYF)), at Heat shock protein HSP90 [1], the result was Active. Moreover, the Kd on Heat shock protein HSP90 [2] was 45 µM; at Heat shock protein HSP90 [3], 19.8 µM.

With `CC(C)C[C@@H]1NC(=O)[C@H](C(C)C)N(C)C(=O)[C@@H](CC(C)C)NC(=O)[C@@H](Cc2cscn2)NC(=O)[C@@H](C(c2ccccc2)c2ccccc2)NC1=O` (cyclo(L[dDip][dAla(4-thiazolyl)][dL][NMeV])), the result at Heat shock protein HSP90 [3] was Active. The compound further came in with a solubility in data set [4] of 200 µM (≈ 143 µg/mL).

Consider `COc1cc([C@H]2Oc3cc([C@H]4Oc5cc(O)cc(O)c5C(=O)[C@@H]4O)ccc3O[C@@H]2CO)ccc1O` [SILYBIN A], for which the Kd at Heat shock protein HSP90 [2] stood at 500 µM.

The Kd is the constant that tells how readily two partners part at equilibrium. In general, solubility refers to the dissolved amount per volume that the medium holds. A low value points to little dissolved substance.
